# Values joined by “and” are separate entries in the source; they are usually repeats but may differ in a detail not shown here. Equal entries are not always repeated.
# Legend:
# AKR1C4 = target: T1, AKR1C4 (Homo sapiens, UniProt P17516); assay: AKR1C4 inhibition assay (DHT to 3α-androstanediol); format: biochemical; details: 10 µM compound; mean ± SD
# T1 construct: Myc (N); expressed in transfected cells; host or cells: HEK293
# T1 sequence (P17516 1-323): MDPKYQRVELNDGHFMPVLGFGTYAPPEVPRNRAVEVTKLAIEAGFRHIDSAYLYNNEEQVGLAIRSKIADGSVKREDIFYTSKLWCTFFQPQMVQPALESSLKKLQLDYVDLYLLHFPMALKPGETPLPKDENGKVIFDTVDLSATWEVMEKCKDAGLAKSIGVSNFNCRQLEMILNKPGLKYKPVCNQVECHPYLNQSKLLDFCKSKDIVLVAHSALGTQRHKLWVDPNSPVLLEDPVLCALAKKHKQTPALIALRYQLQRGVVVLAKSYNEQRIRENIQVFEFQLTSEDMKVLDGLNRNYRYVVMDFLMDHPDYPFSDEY
# Text: (§1) For enzymatic assays and inhibitor testing, all enzymes were cloned into bacterial or mammalian expression vectors. AKR1C3 and the human hydroxysteroid dehydrogenases HSD17B1, HSD17B2, HSD17B4 (SDR domain), HSD17B7, and HSD17B10 were cloned into a pGEX vector as described in [71, 72]. The coding sequences for AKR1C1, AKR1C2, and AKR1C4 were cloned by Gateway technology into the pcDNA3-N-MycDest vector according to the manufacturer’s instructions (Life Technologies, Carlsbad, CA, USA). The p11 plasmid coding for HSD17B14 (S205 variant) was a gift from Udo Opperman SGC Oxford, UK. For assays with HSD17B3, HEK293 cells stably expressing HSD17B3 were used. Enzymes were expressed in E. coli BL21 DE3 or E. coli BL21 DE3 Codon Plus RP (Stratagene, San Diego, CA, USA) or in HEK293 cells as described in [71, 72, 73]. Bacterial and cell pellets were stored at −20 °C and −80 °C, respectively, until use.
# (§2) Inhibition assays were carried out as described in [71, 74]. […] For a detailed assay setup, see Supplementary Table S6. The incubation at 37 °C was stopped with 0.21 M ascorbic acid in methanol:acetic acid 99:1 (v:v) after the time needed to convert approximately 30% of the substrate in a control assay with 1% DMSO, without inhibitor candidate. Substrates and products were extracted from the reaction mixture by solid-phase extraction using C18 cartridges (Phenomenex, Aschaffenburg, Germany) and separated by RP–HPLC in a Beckman–Coulter HPLC Gold system, using the Luna 5 µm C18(2), 125 × 4.0 mm column (Phenomenex). The mobile phases used were H2O:ACN (57:43 (v:v); for assays of estrone (E1) to oestradiol (E2), E2 to E1, and ∆4-androstene-3,17-dione to testosterone conversion), H2O:ACN (49:51 (v:v); for assays of progesterone to 20α-hydroxyprogesterone conversion), and H2O:MeOH (35:65 (v:v) for assays of dihydrotestosterone (DHT) to 3α-androstanediol conversion) at a flow rate of 1 mL/min. Radioactivity was detected by online scintillation counting by using a radioactivity monitor (LB506D, Berthold Technologies, Bad Wildbad, Germany). Conversion of substrates to products was determined by integration of the peak area of the substrate and product peaks in percent. For calculation of inhibition, the conversion of control assay (assay without inhibitor) was set to 0% inhibition. All assays were run in triplicates, and mean values ± SD are reported.
# (§3) Table S6: Activity assay setup […]
# (§4) E1: estrone; E2: 17β-estradiol, A: Δ4-androstene-3,17-dione; T: testosterone, P: progesterone, 20αOHP: 20α-hydroxyprogesterone, DHT: dihydrotestosterone, 3α-Adiol: 3α-androstanediol, NaPi: 100 mM Na-phosphate buffer; PI: C0mplete protease inhibitor (Roche);. E.coli - Expression in E.coli BL21 DE3 Codon Plus RP except E.coli BL21 DE3 […]
# (§5) application to antiparasitic and natural product synthesis. Eur J Org Chem […]
# (§6) Synthesis of Xanthohumol analogues and discovery of potent thioredoxin reductase inhibitor as potential anticancer agent. J Med Chem 2015, 58,
# HSD17B1 = target: T2, HSD17B1 (Homo sapiens, UniProt P14061); assay: HSD17B1 inhibition assay (estrone to oestradiol); format: biochemical; details: 10 µM compound; mean ± SD
# T2 construct: GST (own knowledge: pGEX vectors encode N-terminal GST); made in house; host or cells: E. coli BL21 DE3 Codon Plus RP
# T2 sequence (P14061 1-328): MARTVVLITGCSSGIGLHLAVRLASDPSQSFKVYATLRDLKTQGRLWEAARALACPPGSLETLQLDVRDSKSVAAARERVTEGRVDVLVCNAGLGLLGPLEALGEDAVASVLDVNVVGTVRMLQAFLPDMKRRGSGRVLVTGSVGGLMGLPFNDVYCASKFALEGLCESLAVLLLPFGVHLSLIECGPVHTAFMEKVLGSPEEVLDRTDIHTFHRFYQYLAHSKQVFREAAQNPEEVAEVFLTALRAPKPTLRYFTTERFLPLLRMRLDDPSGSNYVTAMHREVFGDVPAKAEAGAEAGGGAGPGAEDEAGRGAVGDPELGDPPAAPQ
# Text: as §1, §2, §3, §4, §5, §6
# HEK293T cells = assay: Cell Titer Blue cell viability (cytotoxicity) assay; details: 72 h, 1 µM to 100 µM tested
# Method: For the cultivation of HEK293T cells, Dulbecco’s modified Eagle medium (DMEM, Pan Biotech GmbH, Aidenbach, Germany) supplemented with 10% FCS (Pan Biotech GmbH), 100 U/mL penicillin, and 100 µg/mL streptomycin (Pan Biotech GmbH) was used. The cells were cultured at 37 °C and 5% CO2 in constant humidity. Before cell seeding, culture flasks and multiwell plates were coated with collagen G (0.001% in PBS, Merck, Darmstadt, Germany).
# For studying the cytotoxicity of the different chalcones and the positive control compounds cisplatin and etoposide on HEK293T cells, the Cell Titer® Blue (CTB) Cell Viability Assay was used (Promega, Mannheim, Germany). A total of 10,000 cells in a 200 µL culture medium were seeded into each well of a 96-well plate. Then, 24 h after seeding, the cells were treated with 0, 1, 2.5, 5, 7.5, 10, 15, 25, 50, or 100 µM of the different compounds (3 wells per compound and concentration) and incubated for an additional 72 h. For measurement of cell viability, 20 µL of CTB reagent were added to each well, and after 5 h at 37 °C, the metabolic activity was quantified by recording the fluorescence signal (λEx 560 nm, λEm 590 nm) on a Spark plate reader (Tecan Trading GmbH, Männedorf, Switzerland). […] Statistical significances were calculated by one-way ANOVA (Dunnett’s multiple comparison test), * p < 0.05, ** p < 0.005, *** p < 0.0002, **** p < 0.0001.
SMILES,Inhibition of AKR1C4 at 10 µM in % (AKR1C4),Inhibition of HSD17B1 at 10 µM in % (HSD17B1) [%],inhibition at 10 µM (AKR1C4) [%],inhibition at 10 µM (HSD17B1) [%],Compound concentration at which HEK293T viability was significantly decreased (HEK293T cells) [µM]
COc1ccc(/C=C/C(=O)c2c(O)cc(O)cc2O)cc1 [Compound 19],93.3 ± 0.7% and > 75%,42.3 ± 5.3,,,
COc1ccc(/C=C/C(=O)c2c(O)cc(O)cc2OC)cc1 [Compound 18],25.0 ± 1.5%,46.5 ± 8.8,,,
Cc1ccc(/C=C/C(=O)c2c(O)cc(O)cc2O)cc1 [Compound 21],91.6 ± 1.5% and > 75%,42.8 ± 9.1,,,
"O=C(/C=C/c1ccc(Cl)cc1Cl)c1c(O)cc(O)cc1O [Compound 23, 2,4-dichloro-2′,4′,6′-trihydroxychalcone]",,,97 ± 0.9,53.3,≥ 50
Cc1cccc(/C=C/C(=O)c2c(O)cc(O)cc2O)c1 [Compound 20],79.6 ± 0.2% and > 75%,51.8 ± 5.1,,,
COc1cc(O)cc(O)c1C(=O)/C=C/c1ccc(Cl)cc1Cl [Compound 25],41.6 ± 1.8%,,,,7.5
